This note sets out measurements from patent US20140314904A1, “PRE-SLAUGHTER DIET INCLUDING METHIONINE” (ADISSEO FRANCE S.A.S., priority 2011, published 2014).

Common to all, as to format: in vivo, pig
Experiment [1] relates to pigs. The experiment in a line: Dry matter content of muscle samples, Example 2. The note with it: Laboratory, 2 days post mortem. On the procedure: The pigs were slaughtered at a commercial slaughter house in Sweden after a resting time of 5 h. At 45 minutes post mortem, pH (Knick portamess 751) and temperature (digital thermometer, Weber) were measured in the M. longissiumus dorsi at the level of the 10th rib. At 48 h post mortem, the entire loins were dissected from the carcasses and transported to the University of Copenhagen for further measurements. Ultimate pH was measured, as well as colour by Minolta L*a*b*. Dry matter content was determined by drying muscle samples at 105° C. for 24 h. Slices of 3 cm thickness were cut, measured and vacuum packed before being stored for a further 7 days at 2° C. At the end of the storage period samples were heated to an internal temperature of 75° C. After being cooled down, samples were stored cold at 2° C. until they were cut into slabs of 1 cm×1 cm×2.5 cm size for shear force measurement. For each animal, 8 specimens were measured and the mean maximum load was used for further analysis.

Experiment [2] relates to slaughter pigs. The experiment in a line: Instrumental meat colour (CIE L*a*b*), Example 1. As to conditions: LS mean ± SEM.
Experiment [3] relates to slaughter pigs. The experiment in a line: Warner-Bratzler shear force (WBSF), instrumental hardness. As to conditions: 7 days at 2° C., LS mean ± SEM. On the procedure:
In Example 1 twenty-one pigs were randomly assigned to one of three feeding groups (n=7). The control group received a standardized diet only. The DLM and HMTBA groups received the standardized diet plus a high-methionine supplement (either DLM (i.e. […] At 48 h post mortem, 3 cm thick pork chops were either vacuum packed or sealed in a modified atmosphere (MA; 80% O2) and stored for an additional 7 days at 2° C. Instrumental hardness was measured using the Warner-Bratzler shear force (WBSF; Newton) method. Protein oxidation was measured as the loss of free thiol groups in proteins (nmol thiol per mg protein) using Ellman's reagent. Lipid oxidation was measured as the increase in 2-thiobarbituric acid reactive substances (TBARS; mg malondialdehyde per kg meat). Twenty-one slaughter pigs ([Yorkshire×Swedish Landrace]×Hampshire) were raised on a commercial diet. Pigs were randomly assigned to one of three groups (n=7). […] Pork chops were cut perpendicular to the long axis of each LD muscle. Six 3 cm thick pork chops was sliced from each LD. Three were vacuum packed and three were packed in a high-oxygen modified atmosphere. The chops were placed in plastic trays ([…]-43A white/PS; 195×144×43 mm in dimension; Frch Plast, Denmark) and placed in vacuum bags (EM-628862; […] The ambient air was removed from all vacuum bags using a vacuum machine (type, manufacturer, country). […] (until 9 days post mortem). The gas composition was checked (CheckMate 9900, PBI Dansensor, Denmark) before packaging and again prior to opening, at the end of the simulated display period in order to check for leakage. The oxygen-enriched environment was well maintained (83.4%) throughout the display period for all MA packages. Instrumental hardness was measured using the Warner-Bratzler shear force (WBSF) method. In short, at the end of the display period fresh samples were heated in a water bath in an oven (type, manufacturer, country). The temperature rise was monitored for one sample and the remaining samples were given the time to reach an internal temperature of 75° C. plus five minutes. The samples were cooled down before cores of 1 cm×1 cm×2.5 cm were excised for shear force analysis.

Experiment [4] has as its system L. dorsi muscle of the pigs. The experiment in a line: sEMG peak-to-peak amplitude of L. dorsi muscle. The note with it: 1 weeks dietary supplementation. From the text:
This study used both a single and a double differential electrode configuration, with electrodes ([…] & […]; Blue Sensor, Medicotest […], Denmark) configured as described previously by Harrison et al. (Harrison, […]. Molsted, & E. M. Bartels. The uremic environment and muscle dysfunction in man and rat. Nephron. Vol 103: 33-42, 2006). Surface electromyography recordings were taken via an ML 132 amplifier connected to a ML780 PowerLab/[…] converter (AD Instruments, Chalgrove, Oxfordshire, UK) with a further connection to a MacBook Air with Chart v. 3.6.3/s Software, Peak Parameters and Spike Histogram extensions. […] Sampling speed was set to 40,000 per second. Differential recordings of sEMG signals were made via surface electrodes from the L. dorsi muscle as previously described by Andersen et al. (2008, Andersen […], Guy J H, Edwards S A & Harrison A P, Postnatal changes in electromyographic signals during piglet growth, and in relation to muscle fibre types. […] In brief, a bipolar differential electrode configuration, with disposable Ag-AgCl recording electromyography electrodes was attached to the exposed skin surface above the L. dorsi muscle, with a set inter-electrode distance of 16-19 mm (Andersen et al., 2008). […] The recorded sEMG signal was assessed in terms of peak-to-peak amplitude (mV) using Chart analysis software (AD Instruments, Chalgrove, Oxfordshire, UK).

Where [5] appears, read: MAP 80% O2/20% CO2 (9 days post mortem).

For the molecule `CSCCC(N)C(=O)O` (racemic) [DLM, DL-methionine], the “Dry Matter” value in experiment [1] is listed as 26%. Moreover, the “Light reflection (L*)” value in experiment [2] (setting [5]) is on record as 59.19 ± 1.30 ^A. Further, in experiment [2] (Vacuum (9 days post mortem)), the “Light reflection (L*)” value is reported as 57.83 ± 1.25 ^A, B; the “Redness (a*)” value was 8.21 ± 0.58 ^A, B; the Saturation index is reported as 11.55 ± 0.67 ^A, B, C; the “Yellowness (b*)” value is on record as 8.11 ± 0.46 ^A, B. The “Instrumental hardness, WBSF values” in experiment [3] (MAP (80% O2 + 20% CO2)) is 38.58 ± 3.65 ^A, B N. Further, in experiment [3] (Vacuum), the “Instrumental hardness, WBSF values” was 28.80 ± 3.65 ^D N. In experiment [4] (60, 150, 200 Hz), the “Change in sEMG peak-to-peak amplitude between pre and post groups” value is on record as “clear improvement”.

For `CSCCC(O)C(=O)O` (racemic) [HMTBA, 2-hydroxy-4-(methylthio) butanoic acid], the “Dry Matter” value in experiment [1] worked out at 29%. Also, in experiment [2] (setting [5]), the “Light reflection (L*)” value is 58.73 ± 1.30 ^A, B. Also, in experiment [2] (Vacuum (9 days post mortem)), the “Light reflection (L*)” value was 55.34 ± 1.25 ^A, B; the “Redness (a*)” value is 8.86 ± 0.58 ^A, C; the Saturation index is reported as 12.22 ± 0.67 ^A; the “Yellowness (b*)” value was 8.39 ± 0.46 ^A. Also, the “Instrumental hardness, WBSF values” in experiment [3] (MAP (80% O2 + 20% CO2)) was 43.64 ± 3.65 ^A, B N. In addition, the “Instrumental hardness, WBSF values” in experiment [3] (Vacuum) is given as 30.55 ± 3.65 ^C, D N. Moreover, in experiment [4], the “Improvement in muscle growth/performance (sEMG peak-to-peak amplitude) cf CONT (untreated) levels” value is approximately 100%.
